# In patent publication US20140031278A1, “Novel Glucagon Analogues” (NOVO NORDISK A/S, priority 2011, published 2014):
# *1 amine or outer side, *2 acyl side, *3 side chain or, on linkers, in order; H or OH if unused. Where a SMILES comes first, the peptide text is derived from it. Side-chain parts run from the residue outwards. γGlu = O=C(O)[C@H](CCC(=O)[*:2])N[*:1]
# Target: T1, glucagon receptor (Homo sapiens, UniProt P47871)
# T1 construct: expressed in transfected cells
# Assay: Assay (I) Glucagon activity (cAMP biosensor, FLIPR)
# Type: cell-based
# Settings: HEK-293 cells with cloned glucagon receptor and cAMP biosensor; end point after 6 minutes
# Summary of the method: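 HEK-293 cells expressing glucagon receptor with membrane cAMP biosensor (ACTOne), calcium-dye loaded with probenecid and a PDE inhibitor.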
# T1 sequence (P47871 26-477): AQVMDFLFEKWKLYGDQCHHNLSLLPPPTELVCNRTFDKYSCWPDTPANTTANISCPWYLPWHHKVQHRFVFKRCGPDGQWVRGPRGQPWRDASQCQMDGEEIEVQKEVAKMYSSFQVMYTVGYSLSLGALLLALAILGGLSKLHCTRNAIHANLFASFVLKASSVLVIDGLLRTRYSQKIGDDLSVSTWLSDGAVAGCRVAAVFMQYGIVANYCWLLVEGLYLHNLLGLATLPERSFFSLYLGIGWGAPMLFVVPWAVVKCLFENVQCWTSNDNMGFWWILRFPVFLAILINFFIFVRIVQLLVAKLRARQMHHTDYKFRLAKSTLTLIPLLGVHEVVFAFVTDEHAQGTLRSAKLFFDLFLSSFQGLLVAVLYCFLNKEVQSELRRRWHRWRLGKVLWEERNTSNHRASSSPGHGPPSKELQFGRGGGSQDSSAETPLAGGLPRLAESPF
row,Structure (SMILES),EC50 [pM]
1,"CC(C)C[C@H](NC(=O)[C@H](Cc1c[nH]c2ccccc12)NC(=O)[C@H](CCCCNC(=O)CC[C@H](NC(=O)CC[C@H](NC(=O)CC[C@H](NC(=O)CC[C@H](N)C(=O)O)C(=O)O)C(=O)O)C(=O)O)NC(=O)[C@@H](NC(=O)[C@H](Cc1ccccc1)NC(=O)[C@H](CC(=O)O)NC(=O)[C@H](CCC(N)=O)NC(=O)[C@H](C)NC(=O)[C@H](CCCNC(=N)N)NC(=O)[C@H](CCCNC(=N)N)NC(=O)[C@@H](NC(=O)[C@H](CC(=O)O)NC(=O)[C@H](CC(C)C)NC(=O)[C@H](Cc1ccc(O)cc1)NC(=O)[C@H](CCCCN)NC(=O)[C@H](CO)NC(=O)[C@H](Cc1ccc(O)cc1)NC(=O)[C@H](CC(=O)O)NC(=O)[C@H](CO)NC(=O)[C@@H](NC(=O)[C@H](Cc1ccccc1)NC(=O)[C@@H](NC(=O)CNC(=O)[C@H](Cc1c[nH]cn1)NC(=O)[C@H](CO)NC(=O)[C@@H](N)Cc1c[nH]cn1)[C@@H](C)O)[C@@H](C)O)[C@@H](C)O)C(C)C)C(=O)N[C@@H](CC(C)C)C(=O)N[C@@H](CO)C(=O)N[C@H](C(=O)O)[C@@H](C)O [Example 33, N^ε24-[(4S)-4-[[(4S)-4-[[(4S)-4-[[(4S)-4-amino-4-carboxybutanoyl]amino]-4-carboxybutanoyl]amino]-4-carboxybutanoyl]amino]-4-carboxybutanoyl]-[His3,Thr16,Lys24,Leu27,Ser28]-Glucagon] (H-HSHGTFTSDYSKYLDTRRAQDFVK([γGlu-γGlu-γGlu-γGlu])WLLST-OH)",8
2,CC(=O)N[C@@H](CCC(=O)N[C@@H](CCC(=O)N[C@@H](CCC(=O)N[C@@H](CCC(=O)NCCCC[C@H](NC(=O)[C@@H](NC(=O)[C@H](Cc1ccccc1)NC(=O)[C@H](CC(=O)O)NC(=O)[C@H](CCC(N)=O)NC(=O)[C@H](C)NC(=O)[C@H](CCCNC(=N)N)NC(=O)[C@H](CCCNC(=N)N)NC(=O)[C@H](Cc1c[nH]c2ccccc12)NC(=O)[C@H](CC(=O)O)NC(=O)[C@H](CC(C)C)NC(=O)[C@H](Cc1ccc(O)cc1)NC(=O)[C@H](CCCCN)NC(=O)[C@H](CO)NC(=O)[C@H](Cc1ccc(O)cc1)NC(=O)[C@H](CC(=O)O)NC(=O)[C@H](CO)NC(=O)[C@@H](NC(=O)[C@H](Cc1ccccc1)NC(=O)[C@@H](NC(=O)CNC(=O)[C@H](CCC(N)=O)NC(=O)[C@H](CO)NC(=O)[C@@H](N)Cc1c[nH]cn1)[C@@H](C)O)[C@@H](C)O)C(C)C)C(=O)N[C@@H](Cc1c[nH]c2ccccc12)C(=O)N[C@@H](CC(C)C)C(=O)N[C@@H](CC(C)C)C(=O)N[C@@H](CO)C(=O)N[C@H](C(=O)O)[C@@H](C)O)C(=O)O)C(=O)O)C(=O)O)C(=O)O [Example 34],2.3

# More lines, now with the values ahead:
row,EC50 [pM],Structure (SMILES)
1,2.8,CC(=O)N[C@@H](CCC(=O)N[C@@H](CCC(=O)N[C@@H](CCC(=O)N[C@@H](CCC(=O)NCCCC[C@H](NC(=O)[C@@H](NC(=O)[C@H](Cc1ccccc1)NC(=O)[C@H](CC(=O)O)NC(=O)[C@H](CCC(N)=O)NC(=O)[C@H](C)NC(=O)[C@H](CCCNC(=N)N)NC(=O)[C@H](CCCNC(=N)N)NC(=O)[C@H](Cc1ccccc1)NC(=O)[C@H](CC(=O)O)NC(=O)[C@H](CC(C)C)NC(=O)[C@H](Cc1ccc(O)cc1)NC(=O)[C@H](CCCCN)NC(=O)[C@H](CO)NC(=O)[C@H](Cc1ccc(O)cc1)NC(=O)[C@H](CC(=O)O)NC(=O)[C@H](CO)NC(=O)[C@@H](NC(=O)[C@H](Cc1ccccc1)NC(=O)[C@@H](NC(=O)CNC(=O)[C@H](CCC(N)=O)NC(=O)[C@H](CO)NC(=O)[C@@H](N)Cc1c[nH]cn1)[C@@H](C)O)[C@@H](C)O)C(C)C)C(=O)N[C@@H](Cc1c[nH]c2ccccc12)C(=O)N[C@@H](CC(C)C)C(=O)N[C@@H](CC(C)C)C(=O)N[C@@H](CO)C(=O)N[C@H](C(=O)O)[C@@H](C)O)C(=O)O)C(=O)O)C(=O)O)C(=O)O [Example 35]
2,2.5,"CC[C@H](C)[C@H](NC(=O)[C@H](CC(=O)O)NC(=O)[C@H](CC(C)C)NC(=O)[C@H](Cc1ccc(O)cc1)NC(=O)[C@H](CCCCN)NC(=O)[C@H](CO)NC(=O)[C@H](Cc1ccc(O)cc1)NC(=O)[C@H](CC(=O)O)NC(=O)[C@H](CO)NC(=O)[C@@H](NC(=O)[C@H](Cc1ccccc1)NC(=O)[C@@H](NC(=O)CNC(=O)[C@H](CCC(N)=O)NC(=O)[C@H](CO)NC(=O)[C@@H](N)Cc1c[nH]cn1)[C@@H](C)O)[C@@H](C)O)C(=O)N[C@@H](CCCNC(=N)N)C(=O)N[C@@H](CCCNC(=N)N)C(=O)N[C@@H](C)C(=O)N[C@@H](CCC(N)=O)C(=O)N[C@@H](CC(=O)O)C(=O)N[C@@H](Cc1ccccc1)C(=O)N[C@H](C(=O)N[C@@H](CCCCNC(=O)CC[C@H](NC(=O)CC[C@H](NC(=O)CC[C@H](NC(=O)CC[C@H](NC(C)=O)C(=O)O)C(=O)O)C(=O)O)C(=O)O)C(=O)N[C@@H](Cc1c[nH]c2ccccc12)C(=O)N[C@@H](CC(C)C)C(=O)N[C@@H](CC(C)C)C(=O)N[C@@H](CO)C(=O)N[C@H](C(=O)O)[C@@H](C)O)C(C)C [Example 36, N^ε24-[(4S)-4-[[(4S)-4-[[(4S)-4-[[(4S)-4-acetamido-4-carboxybutanoyl]amino]-4-carboxybutanoyl]amino]-4-carbox[…]ybutanoyl]amino]-4-carboxybutanoyl]-[Ile16,Lys24,Leu27,Ser28]-Glucagon]"
3,3,"CC(=O)N[C@@H](CCC(=O)N[C@@H](CCC(=O)N[C@@H](CCC(=O)N[C@@H](CCC(=O)NCCCC[C@H](NC(=O)[C@@H](NC(=O)[C@H](Cc1ccccc1)NC(=O)[C@H](CC(=O)O)NC(=O)[C@H](CCC(N)=O)NC(=O)[C@H](C)NC(=O)[C@H](CCCNC(=N)N)NC(=O)[C@H](CCCNC(=N)N)NC(=O)[C@H](Cc1ccc(O)cc1)NC(=O)[C@H](CC(=O)O)NC(=O)[C@H](CC(C)C)NC(=O)[C@H](Cc1ccc(O)cc1)NC(=O)[C@H](CCCCN)NC(=O)[C@H](CO)NC(=O)[C@H](Cc1ccc(O)cc1)NC(=O)[C@H](CC(=O)O)NC(=O)[C@H](CO)NC(=O)[C@@H](NC(=O)[C@H](Cc1ccccc1)NC(=O)[C@@H](NC(=O)CNC(=O)[C@H](CCC(N)=O)NC(=O)[C@H](CO)NC(=O)[C@@H](N)Cc1c[nH]cn1)[C@@H](C)O)[C@@H](C)O)C(C)C)C(=O)N[C@@H](Cc1c[nH]c2ccccc12)C(=O)N[C@@H](CC(C)C)C(=O)N[C@@H](CC(C)C)C(=O)N[C@@H](CO)C(=O)N[C@H](C(=O)O)[C@@H](C)O)C(=O)O)C(=O)O)C(=O)O)C(=O)O [Example 37, N^ε24-[(4S)-4-[[(4S)-4-[[(4S)-4-[[(4S)-4-acetamido-4-carboxybutanoyl]amino]-4-carboxybutanoyl]amino]-4-carbox[…]ybutanoyl]amino]-4-carboxybutanoyl]-[Tyr16,Lys24,Leu27,Ser28]-Glucagon]"
